According to article PMC10601989, “Charge and lipophilicity are required for effective block of the hair-cell mechano-electrical transducer channel by FM1-43 and its derivatives” (Frontiers in Cell and Developmental Biology, 2023):

Tested on: T1, hair-cell mechano-electrical transducer (MET) channel (native, mouse cochlear outer hair cells)
T1 construct: gene Tmc1; native full-length MET complex in outer hair cells of P2 organotypic cochlear cultures kept 1-2 days in vitro; TMC1 and/or TMC2 pore with TMIE (subunits named only in the discussion; copy numbers from the C. elegans cryo-EM structure it cites); with Transmembrane inner ear expressed protein
Experiment: whole-cell patch clamp of MET currents, fluid-jet bundle stimulation, fractional block
Assay type: cell-based
Settings: -64 mV; extracellular superfusion, 1.3 mM Ca2+, pH 7.48, room temperature; permeant voltage-dependent block

Row | SMILES | % block at 10 μM
1 | CCCCN(CCCC)c1ccc(/C=C/c2cc[n+](CCC[N+](CC)(CC)CC)cc2)cc1 [compound 13550, FM1-43] | ~ 30%
2 | CCCCN(CCCC)c1ccc(/C=C/c2cc[n+](CCCC(=O)OCC)cc2)cc1 [compound 13551, 13551] | > 80%
3 | CCCCN(CCCC)c1ccc(/C=C/c2cc[n+](CCCCC[N+](CC)(CC)CC)cc2)cc1 [compound 13667, 13667] | > 80%
4 | CCCCN(CCCC)c1ccc(/C=C/c2cc[n+](CCCC[N+](CC)(CC)CC)cc2)cc1 [compound 13669, 13669] | > 80%
